Data taken from ChEMBL document CHEMBL5346865, “Male contraceptive development: A medicinal chemistry perspective” (Eur J Med Chem, 2022).

How the values were obtained:
Mus musculus = species: Mus musculus; assay: Contraceptive effect in mouse model of contraception; assay type: functional
[1] = Inhibition of sperm motility in human Spermatozoa assessed as remaining progressive sperm motility relative to control; assay type: functional
[2] = Inhibition of sperm motility in human Spermatozoa incubated for 1 to 2 hrs by computer assisted sperm analysis; assay type: functional, cell-based
[3] = Half life in cynomolgus monkey at 1 mg/kg, iv administered as single infusion dose; assay type: ADME, organism-based, Macaca fascicularis; conditions: in vivo

Row | IC50 [2] [µM] | half-life [3] [min] | Structure (SMILES) | Activity (Mus musculus) [%] | Activity [1] [%]
1 |  |  | Cc1ccc(C2=CC(C)(C)Oc3ccc(-c4ccc(-c5ccc(C(=O)[O-])cc5)[nH]4)cc32)cc1.[Na+] | >99 | 
2 | 200 | < 12 | COC(=O)NNc1nc(Nc2ccc(NC(C)=O)c(O)c2)nc(SCC(=O)O)n1 |  | <20
